Measured values taken from patent US20090214434A1, “METHOD OF DETECTING AND TREATING ALLOGENIC CELLS RESPONSIBLE FOR ENDOMETRIOSIS” (priority 2004, published 2009).

Experiments:
[1] = test system: endometriomas; assay: Human clinical trial: resolution or growth of endometriomas followed by monthly ultrasound under TFI chemotherapy and antioxidant counter therapy; assay type: in vivo
Text: When TFI chemotherapy is stopped to allow the thyroid a rest, we see a general improvement in iron scavenging at lower dose rates afterwards (which hints at a multi-step process that can be slowly poisoned, most probably by I^− to tri-iodide) and usually a recovery to visibility in those in-completely resolved endometriomas during this treatment hiatus. We timed this 3rd party evidence trial to happen as we approached a pre-planned thyroid rest period, taking monthly ultrasounds before to position each active endometrioma as closely as possible, and include three such rest periods, plus two thyroid examinations.
The simplest test was to gently down-regulate the CMI in a patient while that patient was still on TFI chemotherapy, and to observe what happens next. The patient then took 800 international units of vitamin E a day (as a tocopherol). […] A second antioxidant, dietary zinc (10 mg/day), was added to the regimen. Use of both antioxidants allowed us to say that this was not a special case for either antioxidant, though the cumulative effects were very obvious. Vitamin E was stopped two weeks before zinc, to provide a period of zinc only. TFI-induced resolution was still blocked.
The patient then went into their thyroid rest period, and as usual a few recently but incompletely resolved endometriomas developed, but so did two that had been thought resolved from two years ago for a total of five.

[2] = Ghent et al (1993); U.S. Pat. No. 4,555,347; cited from earlier work
[3] = test system: normal self-cells of the uterus; assay: Transvaginal ultrasound of uterine lining / normal self-cells of the uterus, and menstrual period cycle, in the same patient; assay type: in vivo, human; conditions: patient taking aspirin with TFI
Text: In using transvaginal ultra sound, it was possible to view and compare the thickness of the uterine lining, and no abnormal change was observed despite all the activity in the peritoneal cavity.
It should be noted that use of counter chemotherapy produced no change in those similar normal self-cells of the uterus as detectable by ultrasound. All of these ultrasounds were taken at 3 to four days after the patient's periods, except the last one as they had their period cycle extended by taking aspirin.

Structure (SMILES): II [TFI, thermodynamically free iodine]
- clean-up of endometrial cell debris, aberrant organ attachments, endometriomas and stratum functional cell masses ([1]; clinical tests (FIG. 2), patients, administration of iodine): effective
- time for resolution of endometriomas (Stage I to Stage IV process) ([1]; otherwise takes about 15 years without TFI): about one or two
- pain ([1]; use of TFI in the endometriosis patient): relief from pain
- toxicity compared with other forms of iodine [2]: least toxicity of all forms of iodine

Structure (SMILES): CC(=O)Oc1ccccc1C(=O)O [aspirin, acetylsalicylic acid]
- period cycle [3]: extended

Structure (SMILES): Cc1c(C)c2c(c(C)c1O)CC[C@@](C)(CCC[C@H](C)CCC[C@H](C)CCCC(C)C)O2 [vitamin E, alpha tocopherol]
- change in endometriomas (number and size) ([1]; patient still on TFI chemotherapy, 800 international units of vitamin E a day): Minor change was observed, with new endometriomas developing and old ones rapidly increasing in size

Structure (SMILES): [Zn] [zinc]
- TFI-induced resolution of endometriomas ([1]; period of zinc only (vitamin E stopped two weeks before zinc), dietary zinc 10 mg/day, on TFI): still blocked
